# Results from patent US20080003244A1, “Inflammation and Oxidative Stress Reducing Compostion for Topical or Oral Administration” (priority 2006, published 2008).
# “And” between values parts separate entries of the source, which are not always exact repeats. Equal values may be shown once.
# Tested on: A549 human lung epithelial cells
# Assay: H2O2 oxidative stress protection, live cell count (trypan blue dye exclusion)
# Format: cell-based
# Conditions: for Live cell Number: 4 hours, A549
# Method: A549 human lung epithelial cells were seeded and treated with 2.5 mM H202 with or without lipid for 4 hours. Cells were washed and trypsinized and live cells were counted. Test Sample Composition—The extract product titled LP 0817, example 1, was mixed with water at a 30% concentration yielding a compostion of Lipid Extract 23%, Lipoic Acid 7%, Water 70%. Lipid extract (produced by alcohol extraction process cited in example 1 without lipoic acid component)—23% lipids/77% water and lipoic acid at 7% concentration tested separately. 210 mg lipoic acid was dissolved with 2.8 ml. DMSO. (93% DMSO and 7% Lipoic Acid.) This is 100% solution. This working solution was diluted to 5%, 2%, 1% to use for hydrogen peroxide study. A549 human lung epithelial cells (1.5×10^5/well in 6 well dish) were seeded and treated with 2.5 mM H202 with or without lipid for 4 hours. Cells were washed and trypsinized and live cells (trypan blue dye exclusion assay) were counted. Cell number is represented as 10^4.
structure (smiles),measurement,setting,value
"O=C(O)CCCCC1CCSS1 (stereo not shown) [Lipoic Acid 7%, lipoic acid]",Live cell Number,7% lipoic acid in DMSO working solution diluted to 1% + H2O2 (2.5 mM),13 10^4 and 14 10^4
same,Live cell Number,7% lipoic acid in DMSO working solution diluted to 2% + H2O2 (2.5 mM),14 10^4
same,Live cell Number,7% lipoic acid in DMSO working solution diluted to 5% + H2O2 (2.5 mM),10 10^4 and 12 10^4
same,Protection of cells from H2O2 treatment/damage,"A549, 2.5 mM H2O2, 4 hours",Neither Lipid extract nor Lipoic acid protected the cells from H202 damage
